Calls of active or inactive are those of the source.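 How the source made its calls: active means fitted curve reaching 40% activation at or below the top valid dose tested; inconclusive means flat curve at 30 to 70% activation, or poor fit; inactive means the rest.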
test system: SK-MEL-5 TRPM1 promoter luciferase reporter, 24 h; test: activation of TRPM1 promoter luciferase in melanoma cells – SK-MEL-5 cells, cherry-pick samples, dose response (AID 540258);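 further: potency for activators that raise TRPM1 promoter luciferase signal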

| Compound | AC40 |
| --- | --- |
| Cc1ccc(C(=O)Oc2cccc(-n3cnnn3)c2)cc1 | 4.7 µM |
| c1ccc(COc2ccc(-c3csnn3)cc2)cc1 | 0.889 µM |
| COC(=O)c1c(-c2ccc(S(C)(=O)=O)cc2)sc2ccc(OC)cc12 | 2.76 µM |
| O=C(Nc1ccc(Br)cc1F)c1ccc2nsnc2c1 | 1.31 µM |
| COC(=O)c1c(C)[nH]c(/C=N/Nc2ccccc2)c1C | > 35 µM (inactive) |
| CCCn1nnc(NC(=O)c2ccc(-c3ccccc3)cc2)n1 | 2.69 µM |
| CCCc1nc2ccc(NC(C)=O)cc2c(=O)n1Cc1ccc(Cl)cc1 | 2.92 µM |
| ClCCn1cnc2c(SCc3ccccc3)ncnc21 | 3.64 µM |
| CCC(C)NC(=O)c1cc(-c2ccc(OC)cc2)on1 (stereo not drawn) | 0.773 µM |
| Cc1ccc(Sc2cnc3ccccc3n2)cc1 | 1.43 µM |
| C(=N\Nc1nc2ccccc2[nH]1)/c1c[nH]c2ccccc12 | 5.09 µM |
| CCN(CC)C(=O)c1cc2sc3ccccc3c2s1 | 2.42 µM |
| Clc1ccc(-c2cc(CSc3ccccc3)on2)cc1 | 1.45 µM |
| O=C(Cc1ccccc1)Nc1nc(-c2cccs2)cs1 | 14.7 µM |
| COc1ccc(N2C(=O)c3ccccc3NC23CCCCC3)cc1 | 1.62 µM |
| Cc1nc(-c2ccc(NC(=O)c3ccccc3Br)cc2)cs1 | 1.57 µM |
| CS(=O)(=O)N1CCc2cc(C(=O)Nc3ccccc3Br)ccc21 | 4.96 µM |
| O=C(Nc1ccccc1)O/N=C/c1ccc(F)cc1 | 0.883 µM |
| COc1ccc(NC(=O)c2ccc3[nH]c(C)c(C)c3c2)cc1 | 22.4 µM |
| Cc1cc(CNC(=O)c2cc(COc3ccc(F)c(F)c3)on2)nn1C | 3.37 µM |
| Oc1ccc(N=Nc2ccccc2)cc1 | 3.98 µM |
| [O-]/[N+](=C\C=C\c1ccccc1)c1ccccc1 | 1.68 µM |
| c1ccc(CSCc2cn3ccsc3n2)cc1 | 11.2 µM |
| CN(C)C(CNC(=O)c1cc2ccccc2oc1=O)c1ccccc1 (stereo not drawn) | 5.72 µM |
| CCCN1C(=O)C(=O)N(CC(=O)c2cc(C)n(C3CC3)c2C)C1=O | 24.8 µM |
| Cc1cc2cc(OCc3ccccc3)ccc2n1C | 0.737 µM |
| CCc1nc(NC(C)(C)C)c2cnn(-c3ccccc3)c2n1 | 6.25 µM |

| Compound | AC40 |
| --- | --- |
| Nc1ccc2oc(=O)c3ccccc3c2c1 | 3.19 µM |
| Cc1cccc(C(=O)Nc2ccn(C)n2)c1 | 24.4 µM |
| O=C(Cc1ccccc1)Nc1ccc2c(c1)OC1(CCCC1)O2 | 3.23 µM |
| COc1ccc(-c2nnn(Cc3ccccc3F)n2)cc1 | 2.14 µM |
| CCN(CC)C(=O)CCc1nnc(Cc2cccc(C(F)(F)F)c2)o1 | 1.95 µM |
| Clc1ccccc1/C=C/c1nc(-c2cccnc2)no1 | 1.2 µM |
| c1ccc(Cc2cc(-c3ccccc3)on2)cc1 | 2.58 µM |
| Cc1cccc(-c2noc(Cc3ccccc3)n2)c1 | 2.93 µM |
| Cc1nc2cc3nc(C)sc3cc2s1 | 7.83 µM |
| CC1CCN(c2ccc3c(c2)S(=O)(=O)c2ccccc2C3=O)CC1 | 0.442 µM |
| CCCc1cc(C(=O)Nc2ccc(C(=O)OC)cc2)cs1 | 16.2 µM |
| O=C(Cc1ccc(O)cc1)NC1CCCCCC1 | 10.6 µM |
| c1ccc2c(Nc3nnc(-c4ccncc4)s3)cccc2c1 | 4.9 µM |
| CC(=O)Nc1c(-c2ccc3ccccc3c2)nc2ccccn12 | 9.16 µM |
| O=C(NOCc1ccccc1)OCc1ccccc1 | 6.91 µM |
| COc1ccc(-c2csc(-n3cccn3)n2)cc1 | 1.1 µM |
| COC(=O)/C(=C1\Oc2ccc(C(C)(C)C)cc2S1)C(F)(F)F | 3.81 µM |
| C(=C\c1nnc(-c2cccs2)o1)/c1ccccc1 | 0.734 µM |
| COc1ccc2c(c1OC)C(=O)OC2Nc1nc(-c2cc3cc(Br)ccc3oc2=O)cs1 (stereo not drawn) | 0.915 µM |
| Cc1ccc(C(=O)N(CCN2CCCCC2)CC2CCCN(C3CCCC3)C2)s1 (stereo not drawn) | 5.39 µM |
| CCN1CCN(c2ccc(NC(=O)c3cccc(F)c3)cc2Cl)CC1 | 3.08 µM |
| O=C(c1ccc(F)cc1)c1ccc(N2CCCCC2)cc1 | 1.49 µM |
| COc1cc(/C=C2\SC(=S)N(Nc3ccccc3)C2=O)ccc1O | 3.01 µM |
| CCN(CC)CC(=O)Nc1scc2c1c(=O)oc1ccccc12 | 6.27 µM |
| Nc1ccc(N=Nc2ccccc2)c(N)n1 | 14.7 µM |
| O=S(=O)(c1ccccc1)n1ccc(-c2cnc(-c3ccccc3)s2)n1 | 7.87 µM |

Reference: PubChem BioAssay AID540258 (Broad Institute, 2011)
